Experimental data taken from US20090118286A1, “Heterobicyclic Acrylamides” (Bayer Cropscience AG, priority 2005, published 2009).
Where two headings read alike, the source gives them in different places.

Experiments:
[1] = system: caterpillars of the army worm (Spodoptera frugiperda); assay: Spodoptera frugiperda test, SPODFR spray treatment; assay type: in vivo; conditions: foliar, 168 h, 500 g a. i./ha, spray treatment of maize leaf discs, 7 d, read-out: % 7 d (effect in %, caterpillars killed)
Procedure: [table] To produce a suitable preparation of active compound, 1 part by weight of active compound is mixed with the stated amounts of solvents and emulsifier, and the concentrate is diluted with emulsifier-containing water to the desired concentration. Discs of maize leaves (Zea mays) are sprayed with a preparation of active compound of the desired concentration and, after drying, populated with caterpillars of the army worm (Spodoptera frugiperda). After the desired period of time, the effect in % is determined. 100% means that all caterpillars have been killed; 0% means that none of the caterpillars have been killed.

[2] = log P determination by HPLC (EEC Directive 79/831 Annex V.A8, gradient method); assay type: physicochemical; conditions: for chromatographic logP: acetonitrile/0.1% strength aqueous phosphoric acid or formic acid
[3] = HPLC, gradient method, read-out: Physical data (logP)

Structure (SMILES)	Physical data: logP [2]	Physical data (logP) [2]	further results
CC(NC(=O)/C=C/c1c(-c2ccc(Cl)cc2)nc2sc(C(F)(F)F)nn12)C(F)(F)F (centres unmarked) [Example 0024]			pest or weed control at 500 g/ha [1]: 100%; chromatographic logP [2, 3]: 4.13
CC(NC(=O)/C=C/c1c(-c2cccc(Cl)c2)nc2sc(C(F)(F)F)nn12)C(F)(F)F (centres unmarked) [Example 0094]			pest or weed control at 500 g/ha [1]: 100%
O=C(/C=C/c1c(-c2ccccc2Cl)nc2sc(C(F)(F)F)nn12)NC1CCC1 [Example 0153]			pest or weed control at 500 g/ha [1]: 100%; chromatographic logP [2, 3]: 3.33
CCC(C)NC(=O)/C=C/c1c(-c2ccccc2Cl)nc2sc(C(F)(F)F)nn12 (centres unmarked) [Example 0167]			pest or weed control at 500 g/ha [1]: 100%; chromatographic logP [2, 3]: 3.46
CCCC(C)NC(=O)/C=C/c1c(-c2ccccc2Cl)nc2sc(C(F)(F)F)nn12 (centres unmarked) [Example 0168]			pest or weed control at 500 g/ha [1]: 100%; chromatographic logP [2, 3]: 3.85
CC(C)C(C)NC(=O)/C=C/c1c(-c2ccccc2Cl)nc2sc(C(F)(F)F)nn12 (centres unmarked) [Example 0174]			pest or weed control at 500 g/ha [1]: 83%; chromatographic logP [2, 3]: 3.76
CC(NC(=O)/C=C/c1c(-c2ccccc2Cl)nc2sc(C(F)(F)F)nn12)C(F)(F)F (centres unmarked) [Example 0175]			pest or weed control at 500 g/ha [1]: 100%; chromatographic logP [2, 3]: 3.63
O=C(/C=C/c1c(-c2ccc(F)cc2Cl)nc2sc(C(F)(F)F)nn12)NCc1ccc(F)cc1 [Example 0614]			pest or weed control at 500 g/ha [1]: 100%
Cc1csc2nc(-c3ccccc3Cl)c(/C=C/C(=O)Nc3ccc(OC(F)(F)F)cc3)n12 [Example 0900]	3.66		
Cc1csc2nc(-c3ccccc3Cl)c(/C=C/C(=O)NCC(F)(F)C(F)(F)C(F)(F)F)n12 [Example 0903]	3.22		
CC(C)NC(=O)/C=C/c1c(-c2ccccc2Cl)nc2scc(-c3ccccc3)n12 [Example 0904]	2.77		
CC(C)NC(=O)/C=C/c1c(-c2ccccc2Cl)nc2sc(C(F)(F)F)cn12 [Example 0906]	3.23		
CC(C)NC(=O)/C=C/c1c(-c2ccccc2Cl)nc2sc(Br)cn12 [Example 0908]	3.82		
O=C(/C=C/c1c(-c2ccc(F)cc2Cl)nc2sc(C(F)(F)F)nn12)NCCCC(F)(F)F [Example 0912]	3.75		
O=C(/C=C/c1c(-c2ccc(F)cc2Cl)nc2sc(C(F)(F)F)nn12)NC1(C(F)(F)F)CC1 [Example 0913]	3.71		
C[Si](C)(C)CNC(=O)/C=C/c1c(-c2ccc(F)cc2Cl)nc2sc(C(F)(F)F)nn12 [Example 0914]	4.10		

Structure (SMILES)	Physical data: logP [2]	Physical data (logP) [2]	further results
CC(C)(NC(=O)/C=C/c1c(-c2ccc(F)cc2Cl)nc2sc(C(F)(F)F)nn12)C(F)(F)F [Example 0915]	4.11		
O=C(C=Cc1c(-c2ccccc2Cl)nc2sc(C(F)(F)F)nn12)NC(c1ccc(F)cc1)C(F)(F)F (centres unmarked) [Example 0918]	4.34		
O=C(C=Cc1c(-c2ccccc2Cl)nc2sc(C(F)(F)F)nn12)NC(c1ccc(Cl)cc1)C(F)(F)F (centres unmarked) [Example 0919]	4.71		
CC(C)NC(=O)/C=C/c1c(-c2sccc2Cl)nc2sc(C(F)(F)F)nn12 [Example 0920]	3.19		
CC(C)C(NC(=O)C=Cc1c(-c2sccc2Cl)nc2sc(C(F)(F)F)nn12)C(F)(F)F (centres unmarked) [Example 0923]	4.23		
CC(C)NC(=O)/C=C/c1c(-c2ccc(Cl)nc2)nc2sc(C(F)(F)F)nn12 [Example 0933]	2.85		
CC(C)C(NC(=O)C=Cc1c(-c2ccc(Cl)nc2)nc2sc(C(F)(F)F)nn12)C(F)(F)F (centres unmarked) [Example 0936]	3.89		
CC(C)NC(=O)/C=C/c1c(-c2cccnc2Cl)nc2sc(C(F)(F)F)nn12 [Example 0946]	2.47		
CC(C)C(NC(=O)C=Cc1c(-c2cccnc2Cl)nc2sc(C(F)(F)F)nn12)C(F)(F)F (centres unmarked) [Example 0949]	3.48		
CC(C)NC(=O)/C=C/c1c(-c2ccccc2Cl)nc2sc(C(F)(F)C(F)(F)F)nn12 [Example 0959]	3.66		
CC(C)C(NC(=O)C=Cc1c(-c2ccccc2Cl)nc2sc(C(F)(F)C(F)(F)F)nn12)C(F)(F)F (centres unmarked) [Example 0962]	4.62		
CC(C)NC(=O)/C=C/c1c(-c2ccc(F)cc2Cl)nc2sc(C(F)(F)C(F)(F)F)nn12 [Example 0972]	3.79		
CC(C)C(NC(=O)C=Cc1c(-c2ccc(F)cc2Cl)nc2sc(C(F)(F)C(F)(F)F)nn12)C(F)(F)F (centres unmarked) [Example 0975]	4.76		
CC(C)NC(=O)/C=C/c1c(-c2nccs2)nc2sc(C(F)(F)C(F)(F)F)nn12 [Example 0985]	3.27		
CC(C)C(NC(=O)C=Cc1c(-c2nccs2)nc2sc(C(F)(F)C(F)(F)F)nn12)C(F)(F)F (centres unmarked) [Example 0988]	4.35		
O=C(O)/C=C/c1c(-c2ccc(Cl)cc2Cl)nc2sc(C(F)(F)F)nn12 [VA-1, (2E)-3-[6-(2,4-Dichlorophenyl)-2-(trifluoromethyl)imidazo[2,1-b][1,3,4]thiadiazol-5-yl]acrylic Acid]			chromatographic logP ([2]; HPLC gradient method, preparation examples, read-out: log P): 3.15

Now from value to compound, other results behind:

Physical data: logP [2]	Physical data (logP) [2]	Structure (SMILES)	further results
	1.79	O=Cc1c(-c2ccccc2Cl)nc2scnn12 [IVA110]	
	3.47	O=Cc1c(-c2ccccc2Cl)nc2sc(C(F)(F)C(F)(F)F)nn12 [IVA111]	
	3.63	O=Cc1c(-c2ccc(F)cc2Cl)nc2sc(C(F)(F)C(F)(F)F)nn12 [IVA112]	
	2.43	O=Cc1c(-c2nccs2)nc2sc(C(F)(F)F)nn12 [IVA113]	
	3.03	O=Cc1c(-c2nccs2)nc2sc(C(F)(F)C(F)(F)F)nn12 [IVA114]	
	2.62	O=Cc1c(-c2cncc(Br)c2)nc2sc(C(F)(F)F)nn12 [IVA115]	
	2.14	O=Cc1c(-c2cccnc2Cl)nc2sc(C(F)(F)F)nn12 [IVA116]	
	4.08	O=Cc1c(-c2ccc(-c3ccccc3)cc2)nc2sc(C(F)(F)F)nn12 [IVA118]	
	4.63	O=Cc1c(-c2ccc(-c3ccc(Cl)cc3)cc2)nc2sc(C(F)(F)F)nn12 [IVA119]	
	4.02	O=Cc1c(-c2ccc(OCc3ccccc3)cc2)nc2sc(C(F)(F)F)nn12 [IVA120]	
	4.78	O=Cc1c(-c2ccc(-c3ccc(OC(F)(F)F)cc3)cc2)nc2sc(C(F)(F)F)nn12 [IVA121]	
	4.56	O=Cc1c(-c2ccc(Oc3ccc(Cl)cc3)cc2)nc2sc(C(F)(F)F)nn12 [IVA122]	
	2.54	O=Cc1c(-c2ccc(Cl)nc2)nc2sc(C(F)(F)F)nn12 [IVA123]	
	2.92	O=Cc1c(-c2sccc2Cl)nc2sc(C(F)(F)F)nn12 [IVA124]	
	1.84	O=C(O)/C=C/c1c(-c2ccccc2Cl)nc2scnn12 [VA112]	
	3.19	O=C(O)/C=C/c1c(-c2ccccc2Cl)nc2sc(C(F)(F)C(F)(F)F)nn12 [VA113]	
	3.31	O=C(O)/C=C/c1c(-c2ccc(F)cc2Cl)nc2sc(C(F)(F)C(F)(F)F)nn12 [VA114]	
	2.48	O=C(O)/C=C/c1c(-c2nccs2)nc2sc(C(F)(F)F)nn12 [VA115]	
	2.97	O=C(O)/C=C/c1c(-c2nccs2)nc2sc(C(F)(F)C(F)(F)F)nn12 [VA116]	
	2.54	O=C(O)/C=C/c1c(-c2cncc(Br)c2)nc2sc(C(F)(F)F)nn12 [VA117]	

Physical data: logP [2]	Physical data (logP) [2]	Structure (SMILES)	further results
	2.1	O=C(O)/C=C/c1c(-c2cccnc2Cl)nc2sc(C(F)(F)F)nn12 [VA118]	
	3.77	O=C(O)/C=C/c1c(-c2ccc(-c3ccccc3)cc2)nc2sc(C(F)(F)F)nn12 [VA120]	
	4.26	O=C(O)/C=C/c1c(-c2ccc(-c3ccc(Cl)cc3)cc2)nc2sc(C(F)(F)F)nn12 [VA121]	
	3.73	O=C(O)/C=C/c1c(-c2ccc(OCc3ccccc3)cc2)nc2sc(C(F)(F)F)nn12 [VA122]	
	4.46	O=C(O)/C=C/c1c(-c2ccc(-c3ccc(OC(F)(F)F)cc3)cc2)nc2sc(C(F)(F)F)nn12 [VA123]	
	4.22	O=C(O)/C=C/c1c(-c2ccc(Oc3ccc(Cl)cc3)cc2)nc2sc(C(F)(F)F)nn12 [VA124]	
	2.42	O=C(O)/C=C/c1c(-c2ccc(Cl)nc2)nc2sc(C(F)(F)F)nn12 [VA125]	
	2.72	O=C(O)/C=C/c1c(-c2sccc2Cl)nc2sc(C(F)(F)F)nn12 [VA126]	
	3.01	O=C(O)/C=C/c1c(-c2ccc(F)cc2Cl)nc2sc(C(F)(F)C(F)F)nn12 [VA134]	
	3.75	O=C(O)/C=C/c1c(-c2ccc(F)cc2Cl)nc2sc(C(F)(F)C(F)(F)C(F)(F)F)nn12 [VA135]	
	3.25	O=C(O)/C=C/c1c(-c2csc(Cl)n2)nc2sc(C(F)(F)C(F)(F)F)nn12 [VA136]	
	2.77	Cc1ccccc1-c1nc2sc(C(F)(F)F)nn2c1/C=C/C(=O)O [VA-5]	
	2.75	O=C(O)/C=C/c1c(-c2ccc(F)cc2)nc2sc(C(F)(F)F)nn12 [VA-6]	
	3.33	O=C(O)/C=C/c1c(-c2cccc(C(F)(F)F)c2)nc2sc(C(F)(F)F)nn12 [VA-7]	
	2.55	O=C(O)/C=C/c1c(-c2ccccc2F)nc2sc(C(F)(F)F)nn12 [VA-8]	
	2.84	O=C(O)/C=C/c1c(-c2ccc(F)cc2Cl)nc2sc(C(F)(F)F)nn12 [VA-9]	
	2.43	COc1ccc(-c2nc3sc(C(F)(F)F)nn3c2/C=C/C(=O)O)cc1OC [VA-10]	
	2.41	O=C(O)/C=C/c1c(-c2ccccc2Cl)nc2sc(C(F)F)nn12 [VA-14]	
	2.93	O=C(O)/C=C/c1c(-c2ccccc2Cl)nc2sc(C(F)(F)Cl)nn12 [VA-24]	
